Key:
NHDF [1] = assay: Inhibitory activity against replication of HCMV in NHDF cells; Not active; type: functional, cell-based, Homo sapiens
NHDF [2] = assay: Cytotoxic activity against NHDF cell growth; Not active; type: functional, cell-based, Homo sapiens
MRC5 [3] = assay: Inhibitory activity against cytopathic effect of HSV-2(E 194) in MRC-5 cells; Not active; type: functional, cell-based, Homo sapiens
NHDF [4] = assay: Inhibitory activity against replication of HCMV in NHDF cells; type: functional, cell-based; conditions: Homo sapiens
NHDF [5] = assay: Cytotoxic activity against NHDF cell growth; type: functional; conditions: Homo sapiens
MRC5 [6] = assay: Inhibitory activity against cytopathic effect of HSV-2(E 194) in MRC-5 cells; type: functional, cell-based; conditions: Homo sapiens
[7] = Selectivity index is defined as ratio between IC50(NHDF) / IC50(HCMV); type: functional

Row | Structure (SMILES) | IC50 (NHDF [1]) | IC50 (NHDF [2]) | IC50 (MRC5 [3]) | IC50 (NHDF [4]) | CC50 (NHDF [5]) | IC50 (MRC5 [6]) | Selectivity ratio [7]
1 | Nc1ncnc2c1ncn2[C@@H]1C=C[C@H](P(=O)(O)O)O[C@@H]1CO | Not Active | Not Active | Not Active | – | – | – | –
2 | Nc1nc(O)c2ncn([C@@H]3C=C[C@H](P(=O)(O)O)O[C@@H]3CO)c2n1 | – | – | – | > 300 µM | > 1000 µM | 275 µM | –
3 | Cc1cn(C2CC=C(P(=O)(O)O)OC2C)c(=O)[nH]c1=O (stereo not given) | Not Active | Not Active | Not Active | – | – | – | –
4 | Nc1nc(O)c2ncn([C@@H]3CC=C(P(=O)(O)O)O[C@@H]3CO)c2n1 | Not Active | Not Active | Not Active | – | – | – | –
5 | Nc1ccn([C@@H]2C=C[C@H](P(=O)(O)O)O[C@@H]2CO)c(=O)n1 | – | – | – | 10 µM | > 1000 µM | 85 µM | > 100
6 | Nc1ccn([C@@H]2CC=C(P(=O)(O)O)O[C@@H]2CO)c(=O)n1 | – | – | – | 40 µM | > 1000 µM | 90 µM | > 25
7 | Nc1ccn([C@H]2CC=C(P(=O)(O)O)O[C@H]2CO)c(=O)n1 | Not Active | Not Active | Not Active | – | – | – | –
8 | Cc1cn(C2CC=C(P(=O)(O)O)OC2CO)c(=O)[nH]c1=O (stereo not given) | Not Active | Not Active | Not Active | – | – | – | –
9 | Nc1ccn(C2CCC(P(=O)(O)O)OC2CO)c(=O)n1 (stereo not given) | – | – | – | 80 µM | > 1000 µM | – | > 12
10 | CC1OC(P(=O)(O)O)=CCC1n1ccc(N)nc1=O (stereo not given) | – | – | – | 300 µM | > 1000 µM | > 400 µM | > 3.3
11 | Nc1ccn([C@H]2C=C[C@@H](P(=O)(O)O)O[C@H]2CO)c(=O)n1 | Not Active | Not Active | Not Active | – | – | – | –
12 | Nc1ccn(C[C@@H](CO)OCP(=O)(O)O)c(=O)n1 [CIDOFOVIR] | – | – | – | 0.5 µM | 200 µM | 10 µM | 400
13 | Nc1ncnc2c1ncn2[C@@H]1C=C[C@@H](P(=O)(O)O)O[C@@H]1CO | – | – | – | > 300 µM | > 1000 µM | 300 µM | –
14 | Cc1cn(C2C=CC(P(=O)(O)O)OC2C)c(=O)[nH]c1=O (stereo not given) | Not Active | Not Active | Not Active | – | – | – | –
15 | Nc1ncnc2c1ncn2C1CC=C(P(=O)(O)O)OC1CO (stereo not given) | – | – | – | 90 µM | > 1000 µM | – | > 11
16 | CC1OC(P(=O)(O)O)=CCC1n1cnc2c(N)ncnc21 (stereo not given) | Not Active | Not Active | Not Active | – | – | – | –
17 | Cc1cn([C@@H]2C=C[C@H](P(=O)(O)O)O[C@@H]2CO)c(=O)[nH]c1=O | Not Active | Not Active | Not Active | – | – | – | –
18 | Nc1nc(O)c2ncn(C3C=CC(P(=O)(O)O)OC3CO)c2n1 (stereo not given) | Not Active | Not Active | Not Active | – | – | – | –
19 | CC1OC(P(=O)(O)O)C=CC1n1ccc(N)nc1=O (stereo not given) | – | – | – | 200 µM | > 1000 µM | > 400 µM | > 5
20 | Cc1cn([C@@H]2C=C[C@@H](P(=O)(O)O)O[C@@H]2CO)c(=O)[nH]c1=O | Not Active | Not Active | Not Active | – | – | – | –
